One test addresses T1, HCV NS5B (Hepatitis C virus genotype 1b, UniProt Q9WMX2).
T1 construct: The protein was expressed with an 18 amino acid C-terminal truncation to enhance the solubility; made in house; host or cells: E. coli BL21(DE3)
As to the kind of experiment: HCV NS5B RdRp enzyme assay (standard or modified). As to conditions: HCV NS5B RdRp enzyme, genotype 1b; read-out: IC50. In kind it is biochemical. The procedure:
HCV NS5B RdRp cloning, expression, and purification. The cDNA encoding the NS5B protein of HCV, genotype 1b, was cloned into the pET21a expression vector. The protein was expressed with an 18 amino acid C-terminal truncation to enhance the solubility. The E. coli competent cell line BL21(DE3) was used for expression of the protein. Cultures were grown at 37 °C for ~ 4 hours until the cultures reached an optical density of 2.0 at 600 nm. The cultures were cooled to 20 °C and induced with I mM IPTG. Fresh ampicillin was added to a final concentration of 50 µg/ml and the cells were grown overnight at 20 °C.
Cell pellets (3L) were lysed for purification to yield 15-24 mgs of purified NS5B. The lysis buffer consisted of 20 mM Tris-HCl, pH 7.4, 500 mM NaCl, 0.5% triton X-100, 1 mM DTT, 1mM EDTA, 20% glycerol, 0.5 mg/ml lysozyme, 10 mM MgCl2, 15 ug/ml deoxyribonuclease I, and Complete TM protease inhibitor tablets (Roche). After addition of the lysis buffer, frozen cell pellets were resuspended using a tissue homogenizer. To reduce the viscosity of the sample, aliquots of the lysate were sonicated on ice using a microtip attached to a Branson sonicator. The sonicated lysate was centrifuged at 100,000 x g for 1hr at 4 °C and filtered through a 0.2 µm filter unit (Corning).
The protein was purified using three sequential chromatography steps: Heparin sepharose CL-6B, polyU sepharose 4B, and Hitrap SP sepharose (Pharmacia). The chromatography buffers were identical to the lysis buffer but contained no lysozyme, deoxyribonuclease I, MgCl2 or protease inhibitor and the NaCl concentration of the buffer was adjusted according to the requirements for charging the protein onto the column. Each column was eluted with a NaCl gradient which varied in length from 5-50 column volumes depending on the column type. After the final chromatography step, the resulting purity of the enzyme is >90% based on SDS-PAGE analysis. The enzyme was aliquoted and stored at -80 °C.
Standard HCV NS5B RdRp enzyme assay. HCV RdRp genotype 1b assays were run in a final volume of 60 µl in 96 well plates (Costar 3912). The assay buffer is composed of 20 mM Hepes, pH 7.5, 2.5 mM KCI, 2.5 mM MgCl2, 1 mM DTT, 1.6 U RNAse inhibitor (Promega N2515), 0.1 mg/ml BSA (Promega R3961), and 2 % glycerol. All compounds were serially diluted (3-fold) in DMSO and diluted further in water such that the final concentration of DMSO in the assay was 2%. HCV RdRp genotype Ib enzyme was used at a final concentration of 28 nM. A polyA template was used at.6 nM, and a biotinylated oligo-dT12 primer was used at 180 nM final concentration. Template was obtained commercially (Amersham 27-4110). Biotinylated primer was prepared by Sigma Genosys. 3H-UTP was used at 0.6 µCi (0.29 µM total UTP). Reactions were initiated by the addition of enzyme, incubated at 30 °C for 60 min, and stopped by adding 25 µl of 50 mM EDTA containing SPA beads (4 µg/µl, Amersham RPNQ 0007). Plates were read on a Packard Top Count NXT after > 1hr incubation at room temperature.
Modified HCV NS5B RdRp enzyme assay. A modified enzyme assay was performed essentially as described for the standard enzyme assay except for the following: The biotinylated oligo dT12 primer was precaptured on streptavidin-coated SPA beads by mixing primer and beads in assay buffer and incubating at room temperature for one hour. Unbound primer was removed after centrifugation. The primer-bound beads were resuspended in 20 mM Hepes buffer, pH 7.5 and used in the assay at final concentrations of 20 nM primer and 0.67 µg/µl beads. Order of addition in the assay: enzyme (14 nM) was added to diluted compound followed by the addition of a mixture of template (0.2 nM), 3H-UTP (0.6 µCi, 0.29 µM), and primer-bound beads, to initiate the reaction; concentrations given are final. Reactions were allowed to proceed for 4 hours at 30° C.
IC50 values for compounds were determined using seven different [I]. […]

For another test, the system named is HCV replicon. In words: HCV replicon assay (FRET or luciferase readout). In kind it is cell-based. As to conditions: Hepatitis C virus. The source says: FRET Assay Preparation. To perform the HCV FRET screening assay, 96-well cell culture plates were used. The FRET peptide (Anaspec, Inc.) (Taliani et al., Anal. Biochem. 1996, 240, 60-67) contains a fluorescence donor, EDANS, near one end of the peptide and an acceptor, DABCYL, near the other end. The fluorescence of the peptide is quenched by […] resonance energy transfer (RET) between the donor and the acceptor, but as the NS3 protease cleaves the peptide the products are released from RET quenching and the fluorescence of the donor becomes apparent. The assay reagent was made as follows: 5X cell Luciferase cell culture lysis reagent from Promega (#E153A) diluted to 1X with dH2O, NaCl added to 150 mM final, the FRET peptide diluted to 20 µM final from a 2 mM stock.
To prepare plates, HCV replicon cells, with or without a Renilla luciferase reporter gene, were trypsinized and placed into each well of a 96-well plate with titrated test compounds added in columns 3 through 12; columns 1 and 2 contained a control compound (HCV protease inhibitor), and the bottom row contained cells without compound. The plates were then placed in a CO2 incubator at 37 °C.
Assays. Subsequent to addition of the test compounds described above (FRET Assay Preparation), at various times the plate was removed and Alamar blue solution (Trek Diagnostics, #00-100) was added per well as a measure of cellular toxicity. After reading in a Cytoflour 4000 instrument (PE Biosystems), plates were rinsed with PBS and then used for FRET assay by the addition of 30 ul of the FRET peptide assay reagent described above (FRET Assay Preparation) per well. The plate was then placed into the Cytoflour 4000 instrument which had been set to 340 excite/490 emission, automatic mode for 20 cycles and the plate read in a kinetic mode. Typically, the signal to noise using an endpoint analysis after the reads was at least three-fold. Alternatively, after Alamar blue reading, plates were rinsed with PBS, 50 ul of DMEM (high glucose) without phenol red was added and plates were then used for luciferase assay using the Promega Dual-Glo Luciferase Assay System.
Compound analysis was determined by quantification of the relative HCV replicon inhibition and the relative cytotoxicity values. To calculate cytoxicity values, the average Alamar Blue fluorescence signals from the control wells were set as 100% non-toxic. The individual signals in each of the compound test wells were then divided by the average control signal and multiplied by 100% to determine […]. To calculate the HCV replicon inhibition values, an average background value was obtained from the two wells containing the highest amount of HCV protease inhibitor at the end of the assay period. These numbers were similar to those obtained from naïve Huh-7 cells.
The background numbers were then subtracted from the average signal obtained from the control wells and this number was used as 100% activity. The individual signals in each of the compound test wells were then divided by the averaged control values after background subtraction and multiplied by 100% to determine percent activity. EC50 values for a protease inhibitor titration were calculated as the concentration which caused a 50% reduction in FRET or luciferase activity. The two numbers generated for the compound plate, percent cytoxicity and percent activity were used to determine compounds of interest for further analysis.
For orientation: In antiviral work, replicon cells carry a viral genome segment that copies itself.

[1] abbreviates: HCV replicon cells, FRET or luciferase activity, read-out: EC50.

Where two headings read alike, the source gives them in different places.

T1 sequence (Q9WMX2 2420-2992): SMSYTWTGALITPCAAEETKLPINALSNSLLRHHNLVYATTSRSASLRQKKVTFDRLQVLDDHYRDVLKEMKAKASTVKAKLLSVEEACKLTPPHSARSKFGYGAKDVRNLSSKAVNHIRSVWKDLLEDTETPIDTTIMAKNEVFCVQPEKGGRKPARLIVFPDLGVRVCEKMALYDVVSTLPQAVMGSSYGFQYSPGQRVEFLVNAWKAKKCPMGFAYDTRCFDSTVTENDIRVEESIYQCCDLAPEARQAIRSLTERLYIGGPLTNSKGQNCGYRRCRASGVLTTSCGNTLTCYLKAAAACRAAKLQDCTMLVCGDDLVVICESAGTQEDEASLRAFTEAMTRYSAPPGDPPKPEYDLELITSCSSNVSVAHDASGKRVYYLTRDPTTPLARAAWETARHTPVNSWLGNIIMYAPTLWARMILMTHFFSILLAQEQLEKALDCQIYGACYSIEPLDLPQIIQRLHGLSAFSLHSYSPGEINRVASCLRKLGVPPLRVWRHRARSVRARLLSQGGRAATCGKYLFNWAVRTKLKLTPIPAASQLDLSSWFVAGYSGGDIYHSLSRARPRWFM

The IC50 is the concentration that inhibits the measured activity by half. A word on the EC50: it is the concentration at which the effect is half-maximal. Regarding `COC[C@@H]1CN(C(=O)c2c(C)nn(C)c2C2=Cc3cc(OC)ccc3-c3c(C4CCCCC4)c4ccc(C(=O)NS(=O)(=O)C(C)C)cc4n3C2)CCO1`, the concentration for half-maximal inhibition (IC50) on HCV NS5B is 1 to 500 nM. The 50% effective concentration (EC50) with HCV replicon (setting [1]) was 1 to 500 nM.
On to `COc1ccc2c(c1)C=C(c1c(C(=O)N3CCN(C)CC3)c(C)nn1C)Cn1c-2c(C2CCCCC2)c2ccc(C(=O)NS(=O)(=O)C(C)C)cc21`, for which the IC50 at HCV NS5B lay in the range of 1 to 500 nM. The EC50 in the test on HCV replicon (setting [1]) lay in the range of 1 to 500 nM.
In the case of `COc1ccc2c(c1)C=C(c1c(C(=O)N3CCOCC3)c(C(C)C)nn1C)Cn1c-2c(C2CCCCC2)c2ccc(C(=O)NS(=O)(=O)C(C)C)cc21`, the IC50 at HCV NS5B was in the range of 1 to 500 nM. Also, the EC50 with HCV replicon (setting [1]) fell in the range of 1 to 500 nM.
For `COc1ccc2c(c1)C=C(c1c(C(=O)N3CC4CC3CO4)cnn1C(C)C)Cn1c-2c(C2CCCCC2)c2ccc(C(=O)NS(=O)(=O)C(C)C)cc21` (centres unmarked), the IC50 on HCV NS5B is 1 to 500 nM. Further, in the test on HCV replicon, the EC50 is 1 to 500 nM.
Consider `COc1ccc2c(c1)C=C(c1c(C(=O)N3CCN(C)CC3)cnn1C(C)C)Cn1c-2c(C2CCCCC2)c2ccc(C(=O)NS(=O)(=O)C(C)C)cc21`, for which, on HCV NS5B, the half-inhibitory concentration (IC50) fell in the range of 1 to 500 nM. In addition, the EC50 with HCV replicon (setting [1]) was 1 to 500 nM.
In the case of `CCOC(=O)c1c(C)nn(CC)c1C1=Cc2cc(OC)ccc2-c2c(C3CCCCC3)c3ccc(C(=O)O)cc3n2C1`, the IC50 on HCV NS5B lay in the range of 1 to 500 nM. The EC50 in the test on HCV replicon (setting [1]) was > 500 nM.
Take `CCOC(=O)c1c(C)nn(CC)c1C1=Cc2cc(OC)ccc2-c2c(C3CCCCC3)c3ccc(C(=O)NS(=O)(=O)C(C)C)cc3n2C1`: the IC50 at HCV NS5B is 1 to 500 nM. Also, the EC50 in the test with HCV replicon (setting [1]) was > 500 nM.
The matching figures for `CCOC(=O)c1c(C)nn(CC)c1C1=Cc2cc(OC)ccc2-c2c(C3CCCCC3)c3ccc(C(N)=O)cc3n2C1`: 1 to 500 nM and > 500 nM.
The matching figures for `CCOC(=O)c1cnn(CC)c1C1=Cc2cc(OC)ccc2-c2c(C3CCCCC3)c3ccc(C(=O)OC(C)(C)C)cc3n2C1`: > 500 nM and > 500 nM.
The matching figures for `CCOC(=O)c1cnn(CC)c1C1=Cc2cc(OC)ccc2-c2c(C3CCCCC3)c3ccc(C(=O)O)cc3n2C1`: 1 to 500 nM and > 500 nM.
For `CCOC(=O)c1cnn(CC)c1C1=Cc2cc(OC)ccc2-c2c(C3CCCCC3)c3ccc(C(=O)NS(=O)(=O)C(C)C)cc3n2C1`, at HCV NS5B, the IC50 fell in the range of 1 to 500 nM. Besides, in the test on HCV replicon (setting [1]), the EC50 was > 500 nM.
The matching figures for `CCn1ncc(C(=O)N2C[C@@H](C)O[C@@H](C)C2)c1C1=Cc2cc(OC)ccc2-c2c(C3CCCCC3)c3ccc(C(=O)NS(=O)(=O)C(C)C)cc3n2C1`: 1 to 500 nM and 1 to 500 nM.
With `CCn1nc(C)c(C(=O)N2C[C@@H](C)O[C@@H](C)C2)c1C1=Cc2cc(OC)ccc2-c2c(C3CCCCC3)c3ccc(C(=O)NS(=O)(=O)N(C)C)cc3n2C1`, the IC50 on HCV NS5B is 1 to 500 nM. In the test with HCV replicon (setting [1]), the EC50 lay within 1 to 500 nM.
As to `CCn1nc(C)c(C(=O)N2C[C@@H](C)O[C@@H](C)C2)c1C1=Cc2cc(OC)ccc2-c2c(C3CCCCC3)c3ccc(C(=O)NS(=O)(=O)C4CC4)cc3n2C1`, the IC50 on HCV NS5B fell in the range of 1 to 500 nM. Besides, in the test with HCV replicon (setting [1]), the EC50 was in the range of 1 to 500 nM.
Turning to `COc1ccc2c(c1)C=C(c1nn(C(C)C)c(C)c1C(=O)N1C[C@@H](C)N(C)[C@@H](C)C1)Cn1c-2c(C2CCCCC2)c2ccc(C(=O)NS(=O)(=O)C(C)C)cc21`, on HCV NS5B, the IC50 lay in the range of 1 to 500 nM. For the same molecule, the EC50 with HCV replicon (setting [1]) is 1 to 500 nM.
Take `CCN1CC2CC1CN2C(=O)c1c(C)nn(CC)c1C1=Cc2cc(OC)ccc2-c2c(C3CCCCC3)c3ccc(C(=O)NS(=O)(=O)C(C)C)cc3n2C1` (centres unmarked): the IC50 on HCV NS5B lay in the range of 1 to 500 nM. Also, the EC50 with HCV replicon is 1 to 500 nM.
Turning to `CCn1nc(C)c(C(=O)N2CCOCC2)c1C1=Cc2cc(OC)ccc2-c2c(C3CCCCC3)c3ccc(C(=O)NS(=O)(=O)C(C)C)cc3n2C1`, on HCV NS5B, the IC50 was in the range of 1 to 500 nM. Further, the EC50 with HCV replicon (setting [1]) lay within 1 to 500 nM.
For the molecule `COc1ccc2c(c1)C=C(c1c(C(=O)N3C[C@@H](C)O[C@@H](C)C3)nnn1C(C)C)Cn1c-2c(C2CCCCC2)c2ccc(C(=O)NS(=O)(=O)C(C)C)cc21`, at HCV NS5B, the IC50 was 1 to 500 nM. For the same molecule, the EC50 with HCV replicon (setting [1]) lay within 1 to 500 nM.
Regarding `COc1ccc2c(c1)C=C(c1c(C(=O)N3C[C@@H](C)N(C)[C@@H](C)C3)nnn1C(C)C)Cn1c-2c(C2CCCCC2)c2ccc(C(=O)NS(=O)(=O)C(C)C)cc21`, the IC50 at HCV NS5B fell in the range of 1 to 500 nM. In addition, the half-maximal effective concentration (EC50) with HCV replicon (setting [1]) lay in the range of 1 to 500 nM.

The record behind these values is EP2396329B1, “COMPOUNDS FOR THE TREATMENT OF HEPATITIS C” (priority 2009, dated 2010).
